From ChEMBL document CHEMBL1201862, “PubChem BioAssay data set” (2004) come the findings set out here.

In assay [1] the target is T1, Sentrin-specific protease 6 (Homo sapiens, UniProt Q9GZR1).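 Also: Luminescence-based dose-response confirmatory assay of SENP6 inhibition, following up an ultra-high-throughput screen.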
T1 sequence (Q9GZR1 whole entry): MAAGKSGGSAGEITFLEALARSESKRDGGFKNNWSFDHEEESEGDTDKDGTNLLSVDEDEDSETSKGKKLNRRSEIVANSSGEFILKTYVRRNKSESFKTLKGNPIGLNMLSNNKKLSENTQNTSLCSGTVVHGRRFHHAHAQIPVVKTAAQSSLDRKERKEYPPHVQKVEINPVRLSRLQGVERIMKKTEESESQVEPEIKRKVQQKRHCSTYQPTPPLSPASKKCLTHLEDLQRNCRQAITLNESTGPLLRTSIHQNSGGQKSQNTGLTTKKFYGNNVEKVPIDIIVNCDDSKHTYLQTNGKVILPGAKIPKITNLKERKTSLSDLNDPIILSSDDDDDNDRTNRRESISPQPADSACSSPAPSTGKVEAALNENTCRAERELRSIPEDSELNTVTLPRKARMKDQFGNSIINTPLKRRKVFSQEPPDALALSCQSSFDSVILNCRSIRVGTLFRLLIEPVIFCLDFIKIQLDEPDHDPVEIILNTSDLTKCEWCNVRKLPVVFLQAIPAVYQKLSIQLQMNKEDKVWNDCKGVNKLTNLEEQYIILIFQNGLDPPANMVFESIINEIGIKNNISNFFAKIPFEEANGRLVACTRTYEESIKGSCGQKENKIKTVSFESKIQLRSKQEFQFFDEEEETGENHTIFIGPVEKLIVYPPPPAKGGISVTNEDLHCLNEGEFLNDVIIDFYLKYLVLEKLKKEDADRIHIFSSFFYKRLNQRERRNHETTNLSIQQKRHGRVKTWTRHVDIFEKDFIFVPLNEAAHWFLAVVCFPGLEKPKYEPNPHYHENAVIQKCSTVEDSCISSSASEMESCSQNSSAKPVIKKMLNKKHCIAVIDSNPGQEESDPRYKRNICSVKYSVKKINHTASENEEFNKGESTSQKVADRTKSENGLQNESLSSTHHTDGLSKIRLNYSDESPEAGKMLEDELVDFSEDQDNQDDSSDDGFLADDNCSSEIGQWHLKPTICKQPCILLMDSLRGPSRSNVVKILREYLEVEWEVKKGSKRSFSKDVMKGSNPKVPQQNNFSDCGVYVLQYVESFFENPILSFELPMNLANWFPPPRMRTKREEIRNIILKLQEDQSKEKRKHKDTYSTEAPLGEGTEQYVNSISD
Type of assay: functional.

Assay [2] concerns the target T2, Sentrin-specific protease 8 (Homo sapiens, UniProt Q96LD8).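 Also: luminescence read-out of SENP8 inhibition, dose-response confirmation following an ultra-high-throughput screen.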
T2 sequence (Q96LD8 whole entry): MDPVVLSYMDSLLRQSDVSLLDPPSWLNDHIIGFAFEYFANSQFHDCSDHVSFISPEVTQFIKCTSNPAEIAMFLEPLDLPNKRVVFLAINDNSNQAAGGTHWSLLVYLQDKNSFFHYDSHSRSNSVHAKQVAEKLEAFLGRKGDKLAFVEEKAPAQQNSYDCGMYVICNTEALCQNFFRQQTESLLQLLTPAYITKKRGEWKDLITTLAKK
It counts as functional.

The target in assay [3] is Tyrosyl-DNA phosphodiesterase 2 (Homo sapiens, UniProt O95551). Nature of the assay: human TDP2 enzyme inhibitors, dose response, biochemical, epi absorbance, IC50 (AID 743297).
Sequence of Tyrosyl-DNA phosphodiesterase 2 (O95551 whole entry): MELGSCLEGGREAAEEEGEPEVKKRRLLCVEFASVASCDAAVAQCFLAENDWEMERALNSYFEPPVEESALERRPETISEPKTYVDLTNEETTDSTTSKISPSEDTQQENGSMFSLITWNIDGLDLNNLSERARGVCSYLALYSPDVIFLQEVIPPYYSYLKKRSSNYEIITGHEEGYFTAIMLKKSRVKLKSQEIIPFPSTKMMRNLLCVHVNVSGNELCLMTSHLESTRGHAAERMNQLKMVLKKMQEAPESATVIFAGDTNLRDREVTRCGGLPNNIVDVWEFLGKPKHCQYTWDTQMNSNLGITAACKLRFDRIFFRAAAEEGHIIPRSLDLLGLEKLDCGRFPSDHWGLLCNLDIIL
The target of the next assay is T3, Protein RecA (Mycobacterium tuberculosis, UniProt P9WHJ3).
T3 sequence (P9WHJ3 whole entry): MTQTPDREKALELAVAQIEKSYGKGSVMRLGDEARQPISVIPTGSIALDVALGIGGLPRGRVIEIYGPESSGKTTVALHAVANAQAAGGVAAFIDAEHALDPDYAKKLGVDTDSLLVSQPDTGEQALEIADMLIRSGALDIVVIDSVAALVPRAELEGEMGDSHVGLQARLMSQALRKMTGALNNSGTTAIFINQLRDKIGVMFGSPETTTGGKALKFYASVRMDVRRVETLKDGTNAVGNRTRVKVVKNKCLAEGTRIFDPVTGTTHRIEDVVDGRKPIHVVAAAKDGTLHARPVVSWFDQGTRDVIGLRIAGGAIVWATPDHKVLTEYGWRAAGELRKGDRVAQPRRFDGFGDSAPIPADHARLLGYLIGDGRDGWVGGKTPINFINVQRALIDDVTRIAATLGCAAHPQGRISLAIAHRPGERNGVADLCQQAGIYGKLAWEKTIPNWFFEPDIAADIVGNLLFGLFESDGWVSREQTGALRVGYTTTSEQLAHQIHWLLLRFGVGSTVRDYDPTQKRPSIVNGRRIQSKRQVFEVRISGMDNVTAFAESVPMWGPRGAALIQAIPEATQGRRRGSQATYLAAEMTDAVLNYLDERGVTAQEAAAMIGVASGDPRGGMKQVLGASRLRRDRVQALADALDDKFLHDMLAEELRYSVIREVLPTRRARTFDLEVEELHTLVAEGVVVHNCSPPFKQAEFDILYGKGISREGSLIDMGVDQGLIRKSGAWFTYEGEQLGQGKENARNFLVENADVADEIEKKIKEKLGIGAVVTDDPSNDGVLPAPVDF
Nature of the assay: Fluorescence Cell-Free Homogeneous Dose Retest to Identify Inhibitors of RecA-Intein Splicing Activity. [Related pubchem assays (depositor defined):AID2097, AID2223, AID489010, AID492950]. It counts as functional.

Activity calls are given as the source filed them. Where only a bound is given, the exact number is not on record here.

As usually defined, the IC50 is the midpoint of a concentration-inhibition curve. The term EC50 denotes the midpoint of the concentration-response curve. On to `O=C(NN=c1c(=O)c2ccccc2c1=O)c1ccccc1`, for which the IC50 in assay [1] was 3.47 µM (active); in assay [2], > 100 µM (inactive); in assay [3], 5.36 µM (active). Besides, on Protein RecA, the concentration for a half-maximal effect (EC50) was 4.83 µM (active).
